Assay: Acute Oral Toxicity - Fixed Dose procedure
Format: in vivo
Settings: for clinical sign of toxicity: oral, single dose, 14 days observation, female albino Wistar rats
Description: Animal study was conducted for acridone derivatives AC2, AC7, and AC26 alone and in combination with Temozolomide for Acute Oral Toxicity - Fixed Dose procedure. The Institutional Animal Ethics Committee bearing CPCSEA/IAEC/P-52/2016 was approved for undertaking the study. Acute oral toxicity was conducted on female albino Wistar rats for 8–12 weeks and were maintained at 25 ± 2 °C in a conditioned room with 50–60% of humidity and free access to food and water was given. Rats were kept for fasting overnight (12 h) before dosing and weights were recorded periodically. Rats in two groups were given acridone derivatives alone at a dose of […], rats in two groups were given a combination of Temozolomide : acridone derivatives at dose of 10:1 mg/kg and 15:1.5 mg/kg body weight and one group was kept as control. Dose of Temozolomide was taken as per previously published article ([50]). Compounds alone and combination were suspended in 2.0% of Tween 80 in normal saline and control group was taken for vehicle only. After administering the compound, food was not provided for 3 h. All the rats were monitored periodically for 1 h upto 12 h on the 1st day and thereafter twice in a day for mortality, behavioral changes, signs and symptoms of toxicity for 14 days. Individual weights of rats were taken for all the 14 days and study was conducted twice for each dose.

| SMILES | Body weight (g) Day 0 (300 mg/kg oral) [g] | Body weight (g) Day 1 (300 mg/kg oral) [g] | Body weight (g) Day 2 (300 mg/kg oral) [g] | Body weight (g) Day 3 (300 mg/kg oral) [g] | Body weight (g) Day 4 (300 mg/kg oral) [g] | Body weight (g) Day 5 (300 mg/kg oral) [g] | Body weight (g) Day 6 (300 mg/kg oral) [g] | Body weight (g) Day 7 (300 mg/kg oral) [g] | Body weight (g) Day 8 (300 mg/kg oral) [g] | Body weight (g) Day 9 (300 mg/kg oral) [g] | Body weight (g) Day 10 (300 mg/kg oral) [g] | Body weight (g) Day 11 (300 mg/kg oral) [g] | Body weight (g) Day 12 (300 mg/kg oral) [g] | Body weight (g) Day 13 (300 mg/kg oral) [g] | Body weight (g) Day 14 (300 mg/kg oral) [g] | Body weight (g) Day 0 (2000 mg/kg oral) [g] | Body weight (g) Day 1 (2000 mg/kg oral) [g] | Body weight (g) Day 2 (2000 mg/kg oral) [g] | Body weight (g) Day 3 (2000 mg/kg oral) [g] | Body weight (g) Day 4 (2000 mg/kg oral) [g] | other results |
| --- | --- | --- | --- | --- | --- | --- | --- | --- | --- | --- | --- | --- | --- | --- | --- | --- | --- | --- | --- | --- | --- |
| O=C(NN=CC=Cc1ccccc1)c1cccc2c(=O)c3ccccc3[nH]c12 [AC2, 9-oxo-N'-(3-phenylallylidene)-9,10-dihydroacridine-4-carbohydrazide] | 185 ± 6 | 186 ± 12 | 189 ± 10 | 191 ± 15 | 192 ± 12 | 193 ± 22 | 195 ± 12 | 196 ± 10 | 194 ± 12 | 195 ± 10 | 198 ± 15 | 199 ± 16 | 201 ± 10 | 203 ± 6 | 205 ± 18 | 173 ± 8 | 175 ± 11 | 176 ± 8 | 178 ± 12 | 180 ± 14 | Body weight (g) Day 5 (2000 mg/kg oral): 183 ± 15 g; Body weight (g) Day 6 (2000 mg/kg oral): 185 ± 12 g; Body weight (g) Day 7 (2000 mg/kg oral): 188 ± 16 g; Body weight (g) Day 8 (2000 mg/kg oral): 190 ± 12 g; Body weight (g) Day 9 (2000 mg/kg oral): 192 ± 16 g; Body weight (g) Day 10 (2000 mg/kg oral): 195 ± 12 g; Body weight (g) Day 11 (2000 mg/kg oral): 197 ± 8 g; Body weight (g) Day 12 (2000 mg/kg oral): 199 ± 12 g; Body weight (g) Day 13 (2000 mg/kg oral): 202 ± 15 g; Body weight (g) Day 14 (2000 mg/kg oral): 206 ± 7 g; clinical sign of toxicity: No clinical sign of toxicity was observed |
| CC(=NNC(=O)c1cccc2c(=O)c3ccccc3[nH]c12)c1ccccc1O [AC26, N'(1-(2-hydroxyphenyl)ethylidene)-9-oxo-9,10-dihydroacridine-4-carbohydrazide] | 178 ± 10 | 182 ± 8 | 183 ± 12 | 184 ± 16 | 187 ± 10 | 189 ± 16 | 191 ± 12 | 194 ± 18 | 196 ± 12 | 199 ± 10 | 201 ± 14 | 202 ± 16 | 205 ± 12 | 207 ± 8 | 209 ± 18 | 181 ± 11 | 182 ± 15 | 185 ± 10 | 188 ± 11 | 189 ± 18 | Body weight (g) Day 5 (2000 mg/kg oral): 193 ± 22 g; Body weight (g) Day 6 (2000 mg/kg oral): 195 ± 16 g; Body weight (g) Day 7 (2000 mg/kg oral): 199 ± 19 g; Body weight (g) Day 8 (2000 mg/kg oral): 200 ± 14 g; Body weight (g) Day 9 (2000 mg/kg oral): 202 ± 10 g; Body weight (g) Day 10 (2000 mg/kg oral): 206 ± 8 g; Body weight (g) Day 11 (2000 mg/kg oral): 207 ± 9 g; Body weight (g) Day 12 (2000 mg/kg oral): 209 ± 4 g; Body weight (g) Day 13 (2000 mg/kg oral): 211 ± 12 g; Body weight (g) Day 14 (2000 mg/kg oral): 215 ± 20 g; clinical sign of toxicity: No clinical sign of toxicity was observed |
| O=C(NN=Cc1ccccc1Cl)c1cccc2c(=O)c3ccccc3[nH]c12 [AC7, N'-(2-chlorobenzylidene)-9-oxo-9,10-dihydroacridine-4-carbohydrazide] | 175 ± 10 | 176 ± 14 | 178 ± 10 | 181 ± 8 | 183 ± 12 | 185 ± 15 | 188 ± 11 | 192 ± 12 | 194 ± 12 | 196 ± 14 | 195 ± 11 | 197 ± 16 | 199 ± 12 | 202 ± 10 | 205 ± 18 | 180 ± 8 | 181 ± 12 | 183 ± 8 | 185 ± 14 | 187 ± 6 | Body weight (g) Day 5 (2000 mg/kg oral): 189 ± 11 g; Body weight (g) Day 6 (2000 mg/kg oral): 192 ± 16 g; Body weight (g) Day 7 (2000 mg/kg oral): 193 ± 15 g; Body weight (g) Day 8 (2000 mg/kg oral): 197 ± 10 g; Body weight (g) Day 9 (2000 mg/kg oral): 198 ± 18 g; Body weight (g) Day 10 (2000 mg/kg oral): 201 ± 8 g; Body weight (g) Day 11 (2000 mg/kg oral): 204 ± 10 g; Body weight (g) Day 12 (2000 mg/kg oral): 206 ± 14 g; Body weight (g) Day 13 (2000 mg/kg oral): 208 ± 12 g; Body weight (g) Day 14 (2000 mg/kg oral): 211 ± 16 g; clinical sign of toxicity: No clinical sign of toxicity was observed |
